Test results taken from patent US8518876B2, “Composition for long-acting peptide analogs” (Pharmaln Corporation, priority 2007, dated 2013).
“Also recorded” adds a separate entry of the source. Where a SMILES comes first, the peptide text is derived from it. Bridges are numbered along the chain shown (N, C = ends). The star is where a group is joined. Lauroyl = CCCCCCCCCCCC(=O)*

Experiments:
[1] = test system: human umbilical chord artery endothelial cells (HUAEC); assay: Ca-influx after vasopressin analog stimulation of HUAEC, samples pre-incubated in human serum; format: cell-based; set-up: key to Activity of Various Vasopressin Analogs, 0 h / Activity of Various Vasopressin Analogs, 1 h / Activity of Various Vasopressin Analogs, 2 h / Activity of Various Vasopressin Analogs, 4 h: “−” for no detectable activity; “+” to “+++” for slight to high activity; “+” to “+++” for slight to high activity; “+” to “+++” for slight to high activity
Description: Ca-influx after vasopressin analog stimulation of human umbilical chord artery endothelial cells (HUAEC) was used to test the biological activity of the various vasopressin analogs. The material used were: 75 cm^2 tissue culture flasks, BD Bioscience, Bedford Mass. (catalogue number 137787) with 0.2 μm vented blue plug seal caps (catalogue number 353136); human umbilical artery endothelial cells (HUAEC), Lonza, Walkersville, Md. (catalogue number CC-2520); EGM-2 fully supplement medium, Lonza, Walkersville, Md. (catalogue number CC-3162); Fura-2 AM, Invitrogen/Molecular Probes, Carlsbad, Calif. (catalogue number F-1221) (Fura-2 AM is a high affinity, intracellular calcium indicator that is ratiometric and UV light-excitable; the acetoxymethyl (AM) ester form is useful for noninvasive intracellular loading as it is cell permeable. Once inside the cell the ester is clipped which renders the Fura-2 molecule cell impermeable and therefore trapped inside.); terlipressin derivatives custom made by Anaspec, San Jose Calif., according to inventors specifications; pooled human serum, Sigma, St. Louis, Mo. (catalogue number H4522); phosphate buffered saline (PBS), Fisher Scientific, Fair Lawn, N.J. (catalogue number BP399-500); trypsin-EDTA solution, 0.25%, Invitrogen/Gibco, Carlsbad, Calif. (catalogue number 25200-072); heat inactivated fetal bovine serum (FBS), Invitrogen/Gibco, Carlsbad, Calif. (catalogue number 10438-026); black polystyrene 96 well flat-bottom assay plates, Corning Inc., Corning, N.Y. (catalogue number 3916); Chameleon plate multilabel detection reader, Hidex, Turku, Finland, distributed by Bioscan, Washington, D.C.; dimethyl sulfoxide (DMSO), Fisher Scientific, Fair Lawn, N.J. (catalogue number D-136-1).
The methods used for tissue or cell culture are as follows: a vial of HUAEC (>0.5×10^6 cells) was thawed and seeded in two 75 cm^2 flasks with 15 ml EGM-2 medium each. Cells were grown over night and medium was changed. Media in the flasks were changed on a Monday, Wednesday, Friday schedule. Cells were split at approximately 80% confluency (using trypsin). Media were removed and the flasks were washed with 10 ml 1×PBS. The PBS was removed, 1.5 ml trypsin-EDTA solution was added and incubated for 5 min at 37° C. Three ml of FBS added and the cells were counted. The cells were centrifuged at 200×G for 5 min, resuspended in EGM-2 medium and distributed into new 75 cm2 flasks @ 3000-5000 cells per cm2.
To prepare for the Ca2+-influx assay, cells were distributed into one black 96 well plate @ 10^5 cells/well. Cells were allowed to adhere overnight and the medium was then removed. Fifty μg Fura-2 was dissolved in 50 μl DMSO and added to 10 ml PBS/2% FBS. The cells were stained with 20 μl of 5 μg/ml Fura-2 in PBS/2% FBS for 2 h, then 180 μl EGM-2 medium supplemented with CaCl2 and glucose was added (10 mM CaCl2 and 11.1 mM glucose final concentrations).
To prepare analogs for testing, 50 uM terlipressin (or derivative) stock solution in DMSO was prepared. […] (placed on ice after incubation).
To measure Ca-influx, Fura-2 fluorescence was measured for 4 repetitions per well at 340 nm ex/510 nm em and 420 nm ex/510 nm em (4 measurement before and 16 after injection of drug. At t=12 sec, 20 μl of terlipressin or derivative was injected as a 500 nM solution (or serum) for a final concentration of 50 nM per well. Fura-2 fluorescence was measured for […] per well at 340 nm ex/510 nm em and 420 nm ex/510 nm em (4 measurements before and 16 after injection of drug). The controls included injected human serum alone, and terlipressin or derivative dissolved in PBS as […]. All measurements were done in hexuplicate.
Data analysis was done using Graphpad Prism version 5.0 software (Graphpad software Inc, San Diego, Calif.). […]

[2] = Solubility in water of the synthesized peptide; format: physicochemical; conditions: in words

solubility in water [2]: limited solubility in water
Structure (SMILES): CCCCCCCCCCCC(=O)NCC(=O)NCC(=O)NCC(=O)N[C@H]1CSSC[C@@H](C(=O)N2CCC[C@H]2C(=O)N[C@@H](CCCCN)C(=O)NCC(N)=O)NC(=O)[C@H](CC(N)=O)NC(=O)[C@H](CCC(N)=O)NC(=O)[C@H](Cc2ccccc2)NC(=O)[C@H](Cc2ccc(O)cc2)NC1=O [C12TerA, CH3(CH2)10CO-Gly-Gly-Gly-Cys-Tyr-Phe-Gln-Asn-Cys-Pro-Lys-Gly-NH2] (Lauroyl-GGGCYFQNCPKG-NH2; disulfide 4-9)
Activity of Various Vasopressin Analogs, 0 h ([1]; 0 h pre-incubation in pooled human serum at 37° C. (serum present), Ca-influx in HUAEC, 50 nM per well): +++ | Activity of Various Vasopressin Analogs, 1 h ([1]; 1 h pre-incubation in pooled human serum at 37° C., Ca-influx in HUAEC, 50 nM per well): +++ | Activity of Various Vasopressin Analogs, 2 h ([1]; 2 h pre-incubation in pooled human serum at 37° C., Ca-influx in HUAEC, 50 nM per well): +++ | Activity of Various Vasopressin Analogs, 4 h ([1]; 4 h pre-incubation in pooled human serum at 37° C., Ca-influx in HUAEC, 50 nM per well): +++ | calcium influx after 2-hour incubation in human serum ([1]; FIG. 11, Fura-2 fluorescence, in words): able to induce calcium influx; also recorded: pronounced calcium influx
